In patent publication US11389423B2, “Pharmaceutical composition, excipient for the composition and use of the composition” (priority 2018, dated 2022):

Legend:
rats (male and female) = assay: Single dose (acute) toxicity study in rats; type: in vivo
Experimental: (§1) The single-dose (acute) toxicity study was carried out with different groups of rats and mice (male and female) and according to the procedures recommended by OECD (2001) and ANVISA (2013).
(§2) After a 6 h-fasting period, the animals' body weight was determined, and the dose of the synthetic CBD was calculated. Two single doses (1000 and 2000 mg/kg) of synthetic CBD were administered orally (with the aid of a gavage probe) and intraperitoneally in different groups of rats and mice (male and female). Other different groups of rodents were treated with placebo and were considered as control groups.
(§3) The animals were carefully observed for any toxicity signs within the first eight hours after treatment, and daily for a period of 14 days. On the 15th day all animals were euthanized, and the respective anatomopathological investigations were performed on the 15th day after the treatments.

mice (male and female) = assay: Single dose (acute) toxicity study in mice; type: in vivo
Experimental: as §1, §2, §3

[1] = tested on: polychromatic erythrocytes; settings: rats male and female, 500, 1000 and 2000 mg/kg orally
Experimental: To perform the micronucleus test (Schmid, 1976), different groups of rats (male and female; n=10) received three doses of CBD (500, 1000 and 2000 mg/kg) orally. The negative control group received placebo by gavage and the positive control was treated with cyclophosphamide monohydrate (20 mg/kg—Sigma-Aldrich) intraperitoneally. After 24 hours (cyclophosphamide) and 48 hours (CBD-SINT and vehicle) the end of treatments, the animals were euthanized by decapitation. The femurs were removed, the proximal epiphysis was removed to expose the medullary canal and, with the aid of a 13×4.5 mm needle and 3 mL NaCl solution (150 mM), the marrow was removed, washing the medullary canal with NaCl solution. The material was transferred to glass tubes and centrifuged at 1000 rpm/5 min. After centrifugation, the supernatant was discarded, and the deposit was resuspended with a 4% formaldehyde solution and slightly homogenized with the aid of a Pasteur pipette. A drop of this cell suspension was placed on a clean, dry slide, and then the smear was performed. The slides were dried at room temperature and, after 24 hours, stained with Leishman eosin-methylene blue and subjected to microscopic analysis. To determine the number of micronuclei, 2000 polychromatic erythrocytes were counted per animal (1000 in each slide) using an optical microscope, at 400× magnification. The analysis of the slides was blind and performed by a single evaluator.

[2] = tested on: rats with 6-OHDA microinfusion into the substantia nigra; assay: Morris water maze (cued test/memory version), 6-OHDA model; type: in vivo; settings: 6-OHDA rats, 36 or 120 mg/kg orally, day 18 to day 28
Experimental: For the experiments with 6-OHDA, the animals were divided into the following groups: • 6-OHDA+placebo • 6-OHDA+CBD-SINT 12 mg/kg • 6-OHDA+CBD-SINT 36 mg/kg • 6-OHDA+CBD-SINT 120 mg/kg • Sham+placebo • Naive
After the recovery period, CBD-SINT and placebo were administered orally (gavage) for 28 days. Locomotor activity tests were performed only at the end of treatments (day 28). The memory tests (Morris water maze) were performed daily from day 18 to day 28 (FIG. 14).
The rats were submitted to stereotactic surgery (stereotactic—David Kopf, model 957L) and received bilateral microinfusion of MPTP or 6-OHDA (different groups of rats) directly into the substantia nigra. For surgery, the following stereotaxic coordinates were used: anteroposterior: 5.0 mm from the bregma; mediolateral: ±2.1 mm from the midline and dorsoventral: −7.7 mm from the cranial vault (Paxinos and Watson, 1986). Then, 100 μg MPTP (diluted in 1 μL saline, with a flow of 0.33 μL/min) or 8 μg 6-OHDA (diluted in 2 μL saline with 0.2 μg/μL ascorbic acid, with a flow rate of 0.33 μL/min) were injected. […]
The animals were subjected to the same procedure until the four starting points are completed. […] The latency (time it takes the animals to find the platform) and the speed of the animals were quantified by the 2020 Plus Tracking System software.

[3] = 1000 mg/kg and 2000 mg/kg intraperitoneally, single dose
[4] = 1000 and 2000 mg/kg, oral or intraperitoneal
[5] = 1000 and 2000 mg/kg, oral or intraperitoneal, 14 days
[6] = 1000 and 2000 mg/kg, oral or intraperitoneal, after the first 8 h
[7] = doses up to 2000 mg/kg orally or intraperitoneally, 14 days

C=C(C)[C@@H]1CCC(C)=C[C@H]1c1c(O)cc(CCCCC)cc1O [CBD-SINT, Cannabidiol]
abdominal contortions during the first 8 hours (rats (male and female); [3]): occasional abdominal contortions | activity during the first 8 hours of observation (rats (male and female); [3]): significant decrease in its activity | daily feed and water consumption compared to placebo (rats (male and female); [4]): no change | final body weight and body weight gains vs placebo (rats (male and female); [5]): similar | appearance and general behavior pattern until the end of the 14-days observation (rats (male and female); [6]): no significant changes | absolute (g) or relative (%) weight of all organs vs placebo (rats (male and female); after 14 days): no significant differences | histopathological analyzes (rats (male and female); day 15): no significant changes | macroscopic examination of vital organs (rats (male and female); day 15): did not disclose any abnormalities | deaths (LD50 not set forth) (rats (male and female); [7]): no deaths were observed | abdominal contortions during the first 8 hours (mice (male and female); [3]): occasional abdominal contortions | activity during the first 8 hours of observation (mice (male and female); [3]): significant decrease in its activity | daily feed and water consumption compared to placebo (mice (male and female); [4]): no change | final body weight and body weight gains vs placebo (mice (male and female); [5]): similar | appearance and general behavior pattern until the end of the 14-days observation (mice (male and female); [6]): no significant changes | absolute (g) or relative (%) weight of all organs vs placebo (mice (male and female); after 14 days): no significant differences | histopathological analyzes (mice (male and female); day 15): no significant changes | macroscopic examination of vital organs (mice (male and female); day 15): did not disclose any abnormalities | deaths (LD50 not set forth) (mice (male and female); [7]): no deaths were observed | ratio of polychromatic/normochromatic erythrocytes (PCE/NCE ratio) vs placebo [1]: did not cause any significant change | MNPCE number vs placebo (C-) ([1]; 48 hours): in a similar way to that found for animals treated only with placebo | latency time to find the platform (memory deficit) [2]: did not show this deficit
